According to patent publication US20230310436A1, “COMBINATION THERAPY FOR CANCERS WITH KRAS MUTATION” (COTHERA BIOSCIENCE, INC., priority 2019, published 2023):

Tests used:
[1] = tested on: KRAS^G12A-NSCLC H1573 cell line; test: Ex vivo Edu proliferation test (MI, GI %), H1573; assay type: cell-based; settings: Table 1; 4 days; uM: osimertinib 0.5, afatinib 0.2, cobimetinib 0.4, trametinib 0.02, TAK-733 0.18, palbociclib 0.15, ribociclib 5
Method: (§1) For ex vivo drug testing, the cells were exposed to a combination of drugs or single drugs for 4 days or 7 days. Following exposure with drug, 1,000-5,000 cells were labeled with 5-ethynyl-2′-deoxyuridine (Edu) to assess the tumor cell proliferation rates. The labeling lasted 24 hours in the presence of drug exposure. In the control group, epithelial tumor cells received no drug exposure with media change (with 0.1% DMSO), but were similarly labeled with Edu. The labeled cells were fixed and blocked with 3% BSA and 0.5% Triton X-100 for 2 hours at room temperature, followed by staining with Hoechst 33342 and EpCAM antibody (1:4000) in PBS solution containing 0.5% Triton X-100 overnight at 4° C. Subsequently, the cells were rinsed with PBST then incubated with Alexa Fluor® 647 conjugated goat-antimouse secondary antibody for 30 minutes at room temperature.
(§2) The incorporated Edu was detected by Click-iT reaction where fixed cells were incubated with a reaction mixture containing 1× Click-iT Edu reaction buffer, CuSO4, and azide-conjugated Alexa Fluor dye in the dark. The stained cells were washed with PBS two times before image acquisition and analysis.
(§3) For image acquisition and analysis, the stained tumor cells were imaged by a high-content screening (HCS) platform (Thermo Scientific CellomicsArrayScanXTi HCS reader). The 10× objective was used to collect images. Twenty-five fields were imaged for each well for the analysis. From the images three fluorescent signals were obtained from the HCS reader. Blue fluorescent signals recorded nucleus signals stained with Hoechst 33342, green fluorescent signal detected the Edu incorporated in newly synthesized DNA, and red fluorescent signal detected the EpCAM positive epithelial cells population.
The MI (Maximum Inhibition Index) was calculated using the EpCAM and Edu positive readout (Tables 1-4). MI=Edu positive cells in control/Edu positive cells in treatment. MI4 indicates an MI value after 4 days of treatment and MI7 indicates an MI values after 7 days of treatment. […] GI % is calculated as GI %=(1−1/MI)*100%.

[2] = tested on: KRAS^G12D-NSCLC H1588 cell line; test: Ex vivo Edu proliferation test (MI, GI %), H1588; assay type: cell-based; settings: Table 4; 4 days; uM: osimertinib 0.5, afatinib 0.2, cobimetinib 0.4, trametinib 0.02, TAK-733 0.18, palbociclib 0.15, ribociclib 5
Method: as §1, §2, §3
(§4) The MI (Maximum Inhibition Index) was calculated using the EpCAM and Edu positive readout (Tables 1-4). MI=Edu positive cells in control/Edu positive cells in treatment. MI4 indicates an MI value after 4 days of treatment and MI7 indicates an MI values after 7 days of treatment. The MI and growth inhibition rate (GI %) values for KRAS^G12A-NSCLC (H1573 and H2009), KRAS^G12C-NSCLC (H358, H23 and H2030), KRAS^G12V-NSCLC (H2291 and H2444) and KRAS^G12D-NSCLC (H1588 and SK-LU-1) cell lines are shown in Tables 1-4, respectively. GI % is calculated as GI %=(1−1/MI)*100%.

[3] = tested on: KRAS^G12V-NSCLC H2444 cell line; test: Ex vivo Edu proliferation test (MI, GI %), H2444; assay type: cell-based; settings: Table 3; 4 days; uM: osimertinib 0.5, afatinib 0.2, trametinib 0.02, TAK-733 0.18, palbociclib 0.15, ribociclib 5
Method: as §1, §2, §3, §4

[4] = tested on: KRAS^G12C-NSCLC H2030 cell line; test: Ex vivo Edu proliferation test (MI, GI %), H2030; assay type: cell-based; settings: Table 2a; 7 days; uM: osimertinib 0.5, afatinib 0.2, cobimetinib 0.4, trametinib 0.02, palbociclib 0.15, ribociclib 5
Method: as §1, §2, §3, §4

[5] = tested on: KRAS^G12V-NSCLC H2291 cell line; test: Ex vivo Edu proliferation test (MI, GI %), H2291; assay type: cell-based; settings: Table 3; 7 days; uM: osimertinib 0.5, afatinib 0.2, trametinib 0.02, TAK-733 0.18, palbociclib 0.15, ribociclib 5
Method: as §1, §2, §3, §4

[6] = tested on: KRAS^G12C-NSCLC H358 cell line; test: Ex vivo Edu proliferation test (MI, GI %), H358; assay type: cell-based; settings: Table 2a; 7 days; uM: osimertinib 0.5, afatinib 0.2, cobimetinib 0.4, trametinib 0.02, palbociclib 0.15, ribociclib 5
Method: as §1, §2, §3, §4

[7] = tested on: KRAS^G12D-NSCLC SK-LU-1 cell line; test: Ex vivo Edu proliferation test (MI, GI %), SK-LU-1; assay type: cell-based; settings: Table 4; 4 days; uM: osimertinib 0.5, afatinib 0.2, cobimetinib 0.4, trametinib 0.02, TAK-733 0.18, palbociclib 0.15, ribociclib 5
Method: as §1, §2, §3, §4

[8] = tested on: KRAS^G12A-NSCLC H2009 cell line; test: Ex vivo Edu proliferation test (MI, GI %), H2009; assay type: cell-based; settings: Table 1; 4 days; uM: osimertinib 0.5, afatinib 0.2, cobimetinib 0.4, trametinib 0.02, TAK-733 0.18, palbociclib 0.15, ribociclib 5
Method: as §1, §2, §3, §4

[9] = tested on: KRAS^G12C-NSCLC H23 cell line; test: Ex vivo Edu proliferation test (MI, GI %), H23; assay type: cell-based; settings: Table 2a; 7 days; uM: osimertinib 0.5, afatinib 0.2, cobimetinib 0.4, trametinib 0.02, palbociclib 0.15, ribociclib 5
Method: as §1, §2, §3, §4

[10] = tested on: KRAS^G12C NSCLC CDX model H358; assay type: in vivo

Compound	GI % (Growth Inhibition Rate), H1573 [1]	MI 4 (Maximum Inhibition Index), H1573 [1]	GI % (Growth Inhibition Rate), H1588 [2]	MI 4 (Maximum Inhibition Index), H1588 [2]	GI % (Growth Inhibition Rate), H2444 [3]	MI 4 (Maximum Inhibition Index), H2444 [3]	GI % (Growth Inhibition Rate), H2030 [4]	MI 7 (Maximum Inhibition Index), H2030 [4]	GI % (Growth Inhibition Rate), H2291 [5]	MI 7 (Maximum Inhibition Index), H2291 [5]	GI % (Growth Inhibition Rate), H358 [6]	MI 7 (Maximum Inhibition Index), H358 [6]	GI % (Growth Inhibition Rate), SK-LU-1 [7]	MI 4 (Maximum Inhibition Index), SK-LU-1 [7]	GI % (Growth Inhibition Rate), H2009 [8]	MI 4 (Maximum Inhibition Index), H2009 [8]	GI % (Growth Inhibition Rate), H23 [9]	MI 7 (Maximum Inhibition Index), H23 [9]	also measured
CN(C)C/C=C/C(=O)Nc1cc2c(Nc3ccc(F)c(Cl)c3)ncnc2cc1O[C@H]1CCOC1 [Afatinib, afatinib]	42.36%	1.73	43.02%	1.75	44.30%	1.80	55.33%	2.23	26.00%	1.35	22.84%	1.30	8.65%	1.09	14.83%	1.17	16.09%	0.87	–
O=C(c1ccc(F)c(F)c1Nc1ccc(I)cc1F)N1CC(O)([C@@H]2CCCCN2)C1 [Cobimetinib, cobimetinib]	96.36%	27.49	48.38%	1.94	–	–	92.44%	13.21	–	–	97.48%	39.68	64.82%	2.84	67.99%	3.12	75.83%	4.25	–
C=CC(=O)Nc1cc(Nc2nccc(-c3cn(C)c4ccccc34)n2)c(OC)cc1N(C)CCN(C)C [Osimertinib, osimertinib]	67.71%	3.10	55.11%	2.23	66.51%	2.99	57.39%	2.35	21.19%	1.30	22.86%	1.30	35.73%	1.56	35.30%	1.55	13.11%	0.89	–
CC(=O)c1c(C)c2cnc(Nc3ccc(N4CCNCC4)cn3)nc2n(C2CCCC2)c1=O [Palbociclib, palbociclib]	92.17%	12.77	53.52%	2.15	59.59%	2.47	52.39%	2.10	81.25%	5.36	60.31%	2.53	73.45%	3.77	8.82%	1.10	41.73%	1.72	–
CN(C)C(=O)c1cc2cnc(Nc3ccc(N4CCNCC4)cn3)nc2n1C1CCCC1 [Ribociclib, ribociclib]	99.00%	100.43	60.57%	2.54	74.54%	3.93	84.67%	6.57	98.65%	72.98	95.43%	21.19	91.58%	11.88	10.09%	1.11	74.57%	3.96	–
Cn1c(=O)c(F)c(Nc2ccc(I)cc2F)c2c(=O)n(C[C@@H](O)CO)cnc21 [TAK-733]	89.62%	9.64	36.93%	1.59	99.01%	100.76	–	–	98.27%	57.57	–	–	77.44%	4.43	62.18%	2.64	–	–	–
N.N.[Cl][Pt][Cl] [cisplatin]	–	–	–	–	–	–	–	–	–	–	–	–	–	–	–	–	–	–	Mean Tumor Volume, study day 0 ([10]; Table 11A, day 0, mg/kg: osimertinib 10, cobimetinib 5, TAK-733 10, palbociclib 20 daily p.o., cetuximab 1, cisplatin 4 per week i.p., 21 days, then 7 days off): 164.52 ± 22.82 mm^3; Mean Tumor Volume, study day 3 ([10]; Table 11A, day 3, mg/kg: osimertinib 10, cobimetinib 5, TAK-733 10, palbociclib 20 daily p.o., cetuximab 1, cisplatin 4 per week i.p., 21 days, then 7 days off): 249.59 ± 33.58 mm^3; Mean Tumor Volume, study day 7 ([10]; Table 11A, day 7, mg/kg: osimertinib 10, cobimetinib 5, TAK-733 10, palbociclib 20 daily p.o., cetuximab 1, cisplatin 4 per week i.p., 21 days, then 7 days off): 438.18 ± 93.81 mm^3; Mean Tumor Volume, study day 10 ([10]; Table 11A, day 10, mg/kg: osimertinib 10, cobimetinib 5, TAK-733 10, palbociclib 20 daily p.o., cetuximab 1, cisplatin 4 per week i.p., 21 days, then 7 days off): 489.05 ± 102.01 mm^3; Mean Tumor Volume, study day 14 ([10]; Table 11A, day 14, mg/kg: osimertinib 10, cobimetinib 5, TAK-733 10, palbociclib 20 daily p.o., cetuximab 1, cisplatin 4 per week i.p., 21 days, then 7 days off): 618.71 ± 145.67 mm^3; Mean Tumor Volume, study day 17 ([10]; Table 11A, day 17, mg/kg: osimertinib 10, cobimetinib 5, TAK-733 10, palbociclib 20 daily p.o., cetuximab 1, cisplatin 4 per week i.p., 21 days, then 7 days off): 685.80 ± 180.07 mm^3; Mean Tumor Volume, study day 21 ([10]; Table 11A, day 21, mg/kg: osimertinib 10, cobimetinib 5, TAK-733 10, palbociclib 20 daily p.o., cetuximab 1, cisplatin 4 per week i.p., 21 days, then 7 days off): 828.32 ± 220.11 mm^3; Mean Tumor Volume, study day 24 ([10]; Table 11A, day 24, mg/kg: osimertinib 10, cobimetinib 5, TAK-733 10, palbociclib 20 daily p.o., cetuximab 1, cisplatin 4 per week i.p., 21 days, then 7 days off): 958.50 ± 207.93 mm^3; Mean Tumor Volume, study day 28 ([10]; Table 11A, day 28, mg/kg: osimertinib 10, cobimetinib 5, TAK-733 10, palbociclib 20 daily p.o., cetuximab 1, cisplatin 4 per week i.p., 21 days, then 7 days off): 1079.33 ± 275.10 mm^3; Tumor volume (mm^3) day 0 ([10]; Table 11C, day 0, doses as Table 11A (TAK-733 10 mg/kg)): 164.52 ± 22.82 mm^3; Tumor volume (mm^3) day 28 ([10]; Table 11C, day 28, doses as Table 11A (TAK-733 10 mg/kg)): 1079.33 ± 275.10 mm^3; TGI % ([10]; Table 11C, day 28 vs day 0, doses as Table 11A (TAK-733 10 mg/kg)): −10.2%; tumor growth inhibition, in words ([10]; Tables 11A and 11C, cisplatin at 4 mg/kg): no effect on inhibiting tumor growth
